Where a name gives a salt, the structure may show the parent alone.
What was measured:
[1] = biological target: mitochondrial RNA polymerase (POLRMT) (Mus musculus, UniProt Q8BKF1); assay: Homogeneous TR-FRET assay for mitochondrial transcription activity; format: biochemical; details: homogeneous TR-FRET assay according to Example 4
Outline: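 Read-out is TR-FRET (ex 340, em 665 nm) from two adjacent labelled DNA probes annealing to the 407 bp transcript after EDTA/700 mM NaCl stop. Reaction: murine POLRMT, TFAM, TFB2M and LSP plasmid template, compound 10 μM or serial dilution, 10 min rt preincubation, 500 μM each nucleotide, 2 h rt.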

[2] = system: mitochondrial transcription (7S RNA) in HeLa cells; assay: Quantitative real time-PCR assay of inhibition of mitochondrial transcription (7S RNA) in HeLa cells; format: cell-based; details: Homo sapiens, 4 h compound incubation, according to Example 5, read-out: cellular qPCR assay
Outline: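 HeLa cells were exposed to compound dilution series or DMSO for 4 h, then RNA was extracted, normalized and reverse-transcribed. TaqMan qRT-PCR measured short-lived 7S RNA, with POLRMT as nuclear-transcription readout and TBP as housekeeping gene. Biological triplicates were analyzed by ΔΔCt and reported as Rq % (2−ΔΔCt).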

Chain of mitochondrial RNA polymerase (POLRMT) (Q8BKF1 42-1207): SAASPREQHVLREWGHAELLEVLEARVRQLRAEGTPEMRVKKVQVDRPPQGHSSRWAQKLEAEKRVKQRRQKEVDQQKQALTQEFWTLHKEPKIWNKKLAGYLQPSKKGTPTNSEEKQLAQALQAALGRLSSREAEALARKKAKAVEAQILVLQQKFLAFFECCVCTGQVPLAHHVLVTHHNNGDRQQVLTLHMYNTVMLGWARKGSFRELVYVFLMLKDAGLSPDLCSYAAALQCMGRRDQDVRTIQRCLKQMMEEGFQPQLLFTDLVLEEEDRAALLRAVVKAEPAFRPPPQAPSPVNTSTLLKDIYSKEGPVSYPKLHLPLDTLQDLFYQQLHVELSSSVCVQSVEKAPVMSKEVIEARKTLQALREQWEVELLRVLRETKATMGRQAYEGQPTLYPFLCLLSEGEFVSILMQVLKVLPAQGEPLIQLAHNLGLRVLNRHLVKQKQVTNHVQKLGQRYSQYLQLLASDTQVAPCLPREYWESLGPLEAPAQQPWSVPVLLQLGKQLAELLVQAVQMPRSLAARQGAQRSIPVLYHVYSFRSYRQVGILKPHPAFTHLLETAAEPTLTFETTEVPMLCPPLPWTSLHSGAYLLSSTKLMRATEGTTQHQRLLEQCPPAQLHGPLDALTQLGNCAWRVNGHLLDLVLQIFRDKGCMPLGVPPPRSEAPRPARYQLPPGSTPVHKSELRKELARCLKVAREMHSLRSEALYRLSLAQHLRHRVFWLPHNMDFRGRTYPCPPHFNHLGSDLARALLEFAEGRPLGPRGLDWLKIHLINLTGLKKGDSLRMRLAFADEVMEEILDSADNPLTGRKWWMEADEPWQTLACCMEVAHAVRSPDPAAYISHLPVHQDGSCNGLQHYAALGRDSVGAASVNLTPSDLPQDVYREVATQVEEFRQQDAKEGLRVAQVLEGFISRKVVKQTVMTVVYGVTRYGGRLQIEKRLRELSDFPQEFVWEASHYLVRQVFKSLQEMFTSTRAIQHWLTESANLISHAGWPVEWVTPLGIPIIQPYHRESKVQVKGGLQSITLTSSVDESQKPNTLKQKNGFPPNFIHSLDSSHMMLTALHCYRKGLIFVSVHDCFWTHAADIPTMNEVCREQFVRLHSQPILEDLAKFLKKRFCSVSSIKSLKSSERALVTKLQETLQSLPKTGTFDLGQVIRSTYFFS

For `CC(=O)N(O)[C@H]1CCCN(C(=O)[C@@H](C)Oc2ccc3c(-c4c(C)cc(F)cc4C)ccnc3c2)C1` [Compound 185, N-[(3S)-1-[(2R)-2-[[4-(4-fluoro-2,6-dimethyl-phenyl)-7-quinolyl]oxy]propanoyl]-3-piperidyl]-N-hydroxy-acetamide], the IC50 [1] was < 20 nM and the IC50 [2] was < 10 nM.
With `C[C@@H](Oc1ccc2c(-c3ccc(F)cc3Cl)ccnc2c1)C(=O)N1CCCC2(CC2C(=O)O)C1` (stereo partly drawn) [Compound 193, 5-[rac-(2R)-2-[[4-(2-chloro-4-fluoro-phenyl)-7-quinolyl]oxy]propanoyl]-5-azaspiro[2.5]octane-2-carboxylic acid] the IC50 [1] was 20 to 100 nM and the IC50 [2] was 10 to 50 nM.
With `C[C@@H](Oc1ccc2c(-c3ccc(F)cc3Cl)ccnc2c1)C(=O)N1CCNCC1` [Compound 55, (R)-2-((4-(2-chloro-4-fluorophenyl)quinolin-7 yl)oxy)-1-(piperazin-1 yl)propan-1-one 2×TFA salt] the IC50 [1] was 100 to 1000 nM and the IC50 [2] was 50 to 500 nM.
`C[C@@H](Oc1ccc2c(-c3ccccc3Cl)cc(Cl)nc2c1)C(=O)N1CCC[C@H](C(N)=O)C1` [Compound 76, (3S)-1-[(2R)-2-[[2-chloro-4-(2-chlorophenyl)-7-quinolyl]oxy]propanoyl]piperidine-3-carboxamide] showed an IC50 [1] of 100 to 1000 nM and an IC50 [2] of 10 to 50 nM.
`CCOC(=O)C[C@H]1CCCN(C(=O)[C@@H](C)Oc2ccc3c(-c4ccc(F)cc4Cl)cc(C)nc3c2)C1` [Compound 74, ethyl 2-[(3R)-1-[(2R)-2-[[4-(2-chloro-4-fluoro-phenyl)-2-methyl-7-quinolyl]oxy]propanoyl]-3-piperidyl]acetate] was tested, and the IC50 [1] was 100 to 1000 nM and the IC50 [2] was 50 to 500 nM.
In the case of `C[C@@H](Oc1ccc2c(-c3ccc(F)cc3Cl)ccnc2c1)C(=O)N1CCC[C@H](C(=O)O)C1` [Compound 10, (3S)-1-[(2R)-2-[[4-(2-chloro-4-fluoro-phenyl)-7-quinolyl]oxy]propanoyl]piperidine-3-carboxylic acid], the IC50 [1] is reported as < 20 nM and the IC50 [2] is reported as 10 to 50 nM.
With `Cc1cc(F)cc(C)c1-c1ccnc2cc(O[C@H](C)C(=O)N3CCOCC3)ccc12` [Compound 178, (2R)-2-[[4-(4-fluoro-2,6-dimethyl-phenyl)-7-quinolyl]oxy]-1-morpholino-propan-1-one] the IC50 [1] was < 20 nM and the IC50 [2] was 10 to 50 nM.

— patent publication US12281079B2, “Quinoline derivatives, processes for their preparation and uses thereof for the treatment of cancer” (Lead Discovery Center GmbH, priority 2019, dated 2025)
